These are literature values, as cited in US12336993B2, “Therapeutic benefit of suboptimally administered chemical compounds” (priority 2013, dated 2025).

In series [1] the target is glycogen synthase kinase-33 (GSK-30) (Homo sapiens, UniProt P49841).
In a further series the test system is non-Hodgkin's lymphoma. Conditions: literature report (Kennedy et al. 1999).
The subject of another series is DNA. The settings on record: guanine-N7 alkylation of DNA.
In a further series the test system is Hodgkin's lymphoma. The settings on record: literature reports (Gold et al. 1970; Kennedy et al. 1999).
The test system of series [2] is chronic lymphocytic leukemia. The settings on record: literature reports (Kennedy & Theologides 1961; Kennedy et al. 1999).

glycogen synthase kinase-33 (GSK-30), sequence (P49841 whole entry): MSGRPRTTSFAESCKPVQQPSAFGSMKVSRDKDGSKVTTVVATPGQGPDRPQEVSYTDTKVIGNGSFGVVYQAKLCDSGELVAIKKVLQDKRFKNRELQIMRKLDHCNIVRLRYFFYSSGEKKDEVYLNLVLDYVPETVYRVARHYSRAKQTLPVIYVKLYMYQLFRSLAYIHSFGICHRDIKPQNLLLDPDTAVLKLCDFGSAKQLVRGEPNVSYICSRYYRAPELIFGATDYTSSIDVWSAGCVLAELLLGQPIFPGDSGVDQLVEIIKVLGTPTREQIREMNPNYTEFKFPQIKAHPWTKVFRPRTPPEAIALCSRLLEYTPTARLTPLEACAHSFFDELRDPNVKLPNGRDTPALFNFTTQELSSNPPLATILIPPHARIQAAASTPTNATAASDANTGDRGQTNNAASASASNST

For `CN1C(=O)/C(=C2/C(=O)Nc3ccccc32)c2ccccc21` [meisoindigo], the “concentration at which inhibition of GSK is promoted” value in series [1] was 5 to 50 nM.

With `O=c1[nH]cc(N(CCCl)CCCl)c(=O)[nH]1` [uracil mustard, 5-[bis(2-chloroethyl)amino]-1H-pyrimidine-2,4-dione], in the series on non-Hodgkin's lymphoma, the “activity in non-Hodgkin's lymphoma” value is “active”. Also, the “sequence preferences to alkylate” value in the series with DNA was 5′-YGC-3′. Besides, in the series with Hodgkin's lymphoma, the “activity in Hodgkin's lymphoma” value is listed as “active”. For the same molecule, in series [2], the “activity in chronic lymphocytic leukemia” value is recorded as “active”.
